# Values quoted from earlier work, collected in patent US12622967B2, “Molecules, formulations, and methods for nutritional support of athletes, patients, and others” (Today, Inc., priority 2022, dated 2026).
# Experiments:
# [1] = high intensity exercise
# [2] = systemic infusion to target 4 mM blood [lactate]; human experimentation under way, personal communication
Structure (SMILES),time to be oxidized to energy [1],effect on cerebral LPR (lactate/pyruvate ratio) [2]
CC(O)C(=O)O (centres unmarked) [lactate],less than 5 min,
CC(O)C(=O)[O-].[Na+] (centres unmarked) [sodium lactate],,decreases cerebral LPR
